Reference: patent US9061352B2, “Dry powder formulations and methods for treating pulmonary diseases” (priority 2010, dated 2015)

How the values were obtained:
Type in all cases: physicochemical
[1] = Emitted geometric particle size from dry powder inhaler by Spraytec (Dv50, GSD, FPF<5 μm); settings: for average Dv50: 9.2 Joules; for Dv50: measured lower energies
Excerpt: (§1) Volume median diameter can also be measured using a method where the powder is emitted from a dry powder inhaler device. The equipment consisted of a Spraytec laser diffraction particle size system (Malvern, Worcestershire, UK), “Spraytec”. Powder formulations were filled into size 3 HPMC capsules (Capsugel V-Caps) by hand with the fill weight measured gravimetrically using an analytical balance (Mettler Tolerdo XS205). A capsule based passive dry powder inhalers (RS-01 Model 7, High resistance Plastiape S.p.A.) was used which had specific resistance of 0.036 kPa^1/2 LPM^−1. Flow rate and inhaled volume were set using a timer controlled solenoid valve with flow control valve (TPK2000, Copley Scientific). Capsules were placed in the dry powder inhaler, punctured and the inhaler sealed to the inlet of the laser diffraction particle sizer. The steady air flow rate through the system was initiated using the TPK2000 and the particle size distribution was measured via the Spraytec at 1 kHz for at least 2 seconds and up to the total inhalation duration. Particle size distribution parameters calculated included the volume median diameter (Dv50) and the geometric standard deviation (GSD) and the fine particle fraction (FPF) of particles less than 5 micrometers in diameter. At the completion of the inhalation duration, the dry powder inhaler was opened, the capsule removed and re-weighed to calculate the mass of powder that had been emitted from the capsule during the inhalation duration (capsule emitted powder mass or CEPM).
The previous description of the use of the Spraytec was for what is described as its “closed bench configuration”. Alternatively, the Spraytec can be used in its “open bench configuration”. In the open bench configuration, capsules were placed in the dry powder inhaler, punctured and the inhaler sealed inside a cylinder. The cylinder was connected to a positive pressure air source with steady air flow through the system again measured with a mass flow meter and its duration controlled with a timer controlled solenoid valve. The exit of the dry powder inhaler was exposed to room pressure and the resulting aerosol jet passed through the laser of the diffraction particle sizer (Spraytec) in its open bench configuration before being captured by a vacuum extractor. The steady air flow rate through the system was initiated using the solenoid valve and the particle size distribution was measured via the Spraytec at 1 kHz for the duration of the single inhalation maneuver with a minimum of 2 seconds, as in the closed bench configuration. When data are reported in the examples as being measured by the Spraytec, they are from the closed bench configuration unless otherwise noted.
The volume median diameter (Dv50) of the powder after it emitted from a dry powder inhaler, which may also be referred to as volume median geometric diameter (VMGD), was determined using a laser diffraction technique via the Spraytec diffractometer (Malvern, Inc., Worcestershire, UK). Powder was filled into size 3 capsules (V-Caps, Capsugel) and placed in a capsule based dry powder inhaler (RS01 Model 7 High resistance, Plastiape, Italy), or DPI, which was connected with an airtight seal to the inhaler adapter of the Spraytec. A steady airflow rate was drawn through the DPI typically at 60 L/min for a set duration, typically of 2 seconds controlled by a timer controlled solenoid (TPK2000, Copley, Scientific, UK). Alternatively, the airflow rate drawn through the DPI was sometimes run at 15 L/min, 20 L/min, or 30 L/min. The outlet aerosol then passed perpendicularly through the laser beam as an internal flow. The resulting geometric particle size distribution of the aerosol was calculated from the software based on the measured scatter pattern on the photodetectors with samples typically taken at 1000 Hz for the duration of the inhalation. The Dv50, GSD, FPF<5.0 μm measured were then averaged over the duration of the inhalation. […]

[2] = Capsule emitted powder mass (CEPM) from dry powder inhaler; settings: for average CEPM, % of capsule fill weight: 9.2 Joules (60 L/min for 2 L), high resistance RS-01
Excerpt: as §1
A measure of the emission properties of the powders was determined by using the information obtained from the Andersen Cascade Impactor tests. The filled capsule weight was recorded at the beginning of the run and the final capsule weight was recorded after the completion of the run. The difference in weight represented the amount of powder emitted from the capsule (CEPM or capsule emitted powder mass). The emitted dose was calculated by dividing the amount of powder emitted from the capsule by the total initial particle mass in the capsule. While the standard CEPM was measured at 60 L/min, it was also measured at 15 L/min, 20 L/min, or 30 L/min.
Powder formulations were filled into size 3 HPMC capsules (Capsugel V-Caps) by hand with the fill weight measured gravimetrically using an analytical balance (Mettler Tolerdo XS205). […] Two capsule based passive dry powder inhalers (RS-01 Model 7, Low resistance Plastiape S.p.A. and RS-01 Model 7, High resistance Plastiape S.p.A.) were used which had specific resistances of 0.020 and 0.036 kPa1/2/LPM which span the typical range of dry powder inhaler resistance. Flow rate and inhaled volume were set using a timer controlled solenoid valve with flow control valve (TPK2000, Copley Scientific). Capsules were placed in the appropriate dry powder inhaler, punctured and the inhaler sealed to the inlet of the laser diffraction particle sizer (Spraytec, Malvern). The steady air flow rate through the system was initiated using the TPK2000 and the particle size distribution was measured via the Spraytec at 1 kHz for the durations at least 2 seconds and up to the total inhalation duration. Particle size distribution parameters calculated included the volume median diameter (Dv50) and the geometric standard deviation (GSD) and the fine particle fraction (FPF) of particles less than 5 micrometers in diameter. At the completion of the inhalation duration, the dry powder inhaler was opened, the capsule removed and re-weighed to calculate the mass of powder that had been emitted from the capsule during the inhalation duration. At each testing condition, 5 replicate capsules were measured and the results of Dv50, FPF and capsule emitted powder mass (CEPM) were averaged. […]

[3] = Heat of solution in HBSS buffer; settings: for heat of solution ΔH / ΔH (kJ/mol), Average / ΔH (kcal/mol), Average: HBSS buffer; for ΔH (kJ/mol), Average / ΔH (kcal/mol), Average: per mol Ca for all powders except leucine (mol Leu); for ΔH (kJ/mol), Average / ΔH (kcal/mol), Average / Q (cal), Average / ΔT (deg. C.), Average: experiment #1; for Q (cal), Average / ΔT (deg. C.), Average: dissolution in HBSS buffer
[4] = Fine particle fraction by two-stage collapsed Andersen Cascade Impactor (ACI-2); settings: spray dried from 70% ethanol, 50 g/L
[5] = Volume median diameter (x50) and dispersibility ratios by HELOS/RODOS laser diffraction
Protocol: Volume median diameter (×50 or Dv50), which may also be referred to as volume median geometric diameter (VMGD), was determined using a laser diffraction technique. The equipment consisted of a HELOS diffractometer and a RODOS dry powder disperser (Sympatec, Inc., Princeton, N.J.). The RODOS disperser applies a shear force to a sample of particles, controlled by the regulator pressure (typically set at 1.0 bar) of the incoming compressed dry air. The pressure settings may be varied to vary the amount of energy used to disperse the powder. For example, the regulator pressure may be varied from 0.2 bar to 4.0 bar; and the orifice ring pressure may be varied from 5.00 mbar to 115.00 mbar. Powder sample is dispensed from a microspatula into the RODOS funnel. The dispersed particles travel through a laser beam where the resulting diffracted light pattern produced is collected, typically using an R1 lens, by a series of detectors. The ensemble diffraction pattern is then translated into a volume-based particle size distribution using the Fraunhofer diffraction model, on the basis that smaller particles diffract light at larger angles. Using this method geometric standard deviation (GSD) for the volume mean geometric diameter was also determined.

[6] = RS.01.HR, fill 25 mg, 15 LPM, 4 s, 0.29 J
[7] = RS.01.HR, fill 25 mg, 20 LPM, 3 s, 0.51 J
[8] = RS.01.HR, fill 25 mg, 30 LPM, 2 s, 1.15 J
[9] = RS.01.HR, fill 25 mg, 60 LPM, 2 s, 9.18 J
[10] = RS.01.HR, fill 40 mg, 15 LPM, 4 s, 0.29 J
[11] = RS.01.HR, fill 40 mg, 20 LPM, 3 s, 0.51 J
[12] = RS.01.HR, fill 40 mg, 30 LPM, 2 s, 1.15 J
[13] = RS.01.HR, fill 40 mg, 60 LPM, 2 s, 9.18 J
[14] = RS.01.LR, fill 25 mg, 60 LPM, 2 s, 2.85 J
[15] = RS.01.LR, fill 40 mg, 60 LPM, 2 s, 2.85 J
[16] = all measured energies below 9.2 Joules, 25 and 40 mg fill

With “albuterol sulfate [Micronized Albuterol]” the “average Dv50” value ([1]; 25 mg fill) was 1.8 μm, the Dv50 ([1]; 25 mg fill) was 3.9 μm and the “average Dv50” value ([1]; 40 mg fill) was 1.6 μm. For the same molecule, the Dv50 ([1]; 40 mg fill) was 3.1 μm, the “Mean Dv(50) (μm)” value [1, 6] was 16.76 μm and the “Mean FPF, % <5 μm” value [1, 6] was 13.00%. For the same molecule, the “Mean Dv(50) (μm)” value [1, 7] was 8.40 μm, the “Mean FPF, % <5 μm” value [1, 7] was 32.10% and the “Mean Dv(50) (μm)” value [1, 8] was 3.86 μm. For the same molecule, the “Mean FPF, % <5 μm” value [1, 8] was 59.44%, the “Mean Dv(50) (μm)” value [1, 9] was 1.77 μm and the “Mean FPF, % <5 μm” value [1, 9] was 81.65%. The “Mean Dv(50) (μm)” value [1, 10] was 17.63 μm, the “Mean FPF, % <5 μm” value [1, 10] was 10.73% and the “Mean Dv(50) (μm)” value [1, 11] was 6.34 μm. The “Mean FPF, % <5 μm” value [1, 11] was 42.24%, the “Mean Dv(50) (μm)” value [1, 12] was 3.13 μm and the “Mean FPF, % <5 μm” value [1, 12] was 67.18%. For the same molecule, the “Mean Dv(50) (μm)” value [1, 13] was 1.60 μm, the “Mean FPF, % <5 μm” value [1, 13] was 84.30% and the “Mean Dv(50) (μm)” value [1, 14] was 2.57 μm. For the same molecule, the “Mean FPF, % <5 μm” value [1, 14] was 75.01%, the “Mean Dv(50) (μm)” value [1, 15] was 2.62 μm and the “Mean FPF, % <5 μm” value [1, 15] was 73.98%. For the same molecule, the “average CEPM, % of capsule fill weight” value ([2]; 25 mg fill) was 93%, the “average CEPM, % of capsule fill weight” value ([2]; 40 mg fill) was 84% and the “Mean CEPM” value [2, 6] was 3.12 mg. The “Mean CEPM” value [2, 7] was 5.00 mg, the “Mean CEPM” value [2, 8] was 7.08 mg and the “Mean CEPM” value [2, 9] was 23.18 mg. For the same molecule, the “Mean CEPM” value [2, 10] was 2.43 mg, the “Mean CEPM” value [2, 11] was 4.97 mg and the “Mean CEPM” value [2, 12] was 8.55 mg. For the same molecule, the “Mean CEPM” value [2, 13] was 33.40 mg, the “Mean CEPM” value [2, 14] was 15.28 mg and the “Mean CEPM” value [2, 15] was 18.88 mg. The CEPM [2, 16] was “below 10 mg” and the “CEPM, % of capsule fill weight” value [2, 16] was under 30%.

In the case of `O.O.[Ca+2].[Cl-].[Cl-]` [raw calcium chloride dihydrate, calcium chloride dihydrate], the “heat of solution ΔH” value ([3]; first experiment) is reported as -12.1 kcal/mol and the “heat of solution ΔH” value ([3]; second experiment) is reported as -8.4 kcal/mol.

With `[Cl-].[Cl-].[Mg+2]` [Pure magnesium chloride, magnesium chloride] the “fine particle fraction less than 5.6 microns” value [4] was 19%, the “median volume particle size” value ([5]; spray dried from 70% ethanol, 50 g/L) was 4 microns and the median particle size ([5]; spray dried from D.I. water, 20 g/L) was 21 microns.

For `CC(C)C[C@H](N)C(=O)O` [Leucine], the “ΔH (kJ/mol), Average” value [3] was -6 kJ/mol, the “ΔH (kcal/mol), Average” value [3] was -1.5 kcal/mol and the “Q (cal), Average” value [3] was 0.37 cal. The “ΔT (deg. C.), Average” value [3] was 0.003 deg. C.

For `O.O.[Ca+2].[Cl-].[Cl-]` [CaCl2•2H2O], the “ΔH (kJ/mol), Average” value [3] was -50.5 kJ/mol, the “ΔH (kcal/mol), Average” value [3] was -12.1 kcal/mol and the “Q (cal), Average” value [3] was 2.93 cal. The “ΔT (deg. C.), Average” value [3] was 0.024 deg. C.
